Source: ChEMBL document CHEMBL1828558, “Discovery of (+)-N-(3-aminopropyl)-N-[1-(5-benzyl-3-methyl-4-oxo-[1,2]thiazolo[5,4-d]pyrimidin-6-yl)-2-methylpropyl]-4-methylbenzamide (AZD4877), a kinesin spindle protein inhibitor and potential anticancer agent” (J Med Chem, 2011)

Tests used:
[1] = target: T1, Kinesin-like protein KIF11 (Homo sapiens, UniProt P52732); assay: Inhibition of human recombinant C-terminal His6-tagged KSP ATPase activity after 1 hr by malachite green assay
T1 sequence (P52732 whole entry): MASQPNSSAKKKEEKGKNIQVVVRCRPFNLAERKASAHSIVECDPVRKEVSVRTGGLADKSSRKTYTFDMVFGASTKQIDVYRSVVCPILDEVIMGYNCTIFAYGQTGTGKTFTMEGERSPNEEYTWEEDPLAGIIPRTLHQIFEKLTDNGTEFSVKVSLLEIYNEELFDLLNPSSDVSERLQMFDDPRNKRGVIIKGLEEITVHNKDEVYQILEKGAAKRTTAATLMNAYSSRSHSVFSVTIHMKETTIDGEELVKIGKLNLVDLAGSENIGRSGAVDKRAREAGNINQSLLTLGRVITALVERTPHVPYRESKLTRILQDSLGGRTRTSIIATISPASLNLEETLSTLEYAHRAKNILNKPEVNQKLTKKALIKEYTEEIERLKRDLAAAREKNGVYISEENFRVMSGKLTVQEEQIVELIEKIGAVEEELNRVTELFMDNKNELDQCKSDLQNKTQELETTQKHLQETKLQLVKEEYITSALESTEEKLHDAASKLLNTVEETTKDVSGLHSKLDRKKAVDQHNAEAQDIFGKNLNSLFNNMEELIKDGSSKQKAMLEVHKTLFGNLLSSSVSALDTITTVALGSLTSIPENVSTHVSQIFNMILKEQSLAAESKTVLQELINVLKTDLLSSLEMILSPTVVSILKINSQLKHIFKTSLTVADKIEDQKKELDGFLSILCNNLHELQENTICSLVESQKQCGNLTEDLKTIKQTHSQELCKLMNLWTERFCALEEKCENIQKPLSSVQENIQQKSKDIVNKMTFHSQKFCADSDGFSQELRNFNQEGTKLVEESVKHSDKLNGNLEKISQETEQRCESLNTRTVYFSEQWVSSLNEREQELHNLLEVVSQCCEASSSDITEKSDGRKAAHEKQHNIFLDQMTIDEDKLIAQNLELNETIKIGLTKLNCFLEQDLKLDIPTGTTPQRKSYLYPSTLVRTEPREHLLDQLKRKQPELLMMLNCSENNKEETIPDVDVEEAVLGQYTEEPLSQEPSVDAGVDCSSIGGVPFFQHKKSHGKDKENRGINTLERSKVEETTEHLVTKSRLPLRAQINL

COLO 205 = assay: Anticancer activity against human COLO205 cells after 72 hrs by MTS/PMS assay; type: functional, cell-based

SMILES	IC50 [1] [nM]	IC50 (COLO 205; Homo sapiens, COLO 205, 72 h) [nM]	IC50 (COLO 205; colo 205) [nM]
CCC(c1nc2ccsc2c(=O)n1Cc1ccccc1)N(CCCN)C(=O)c1ccc(Cl)cc1 (stereo not drawn)	50	200	–
CCC(c1nc2ccsc2c(=O)n1Cc1ccccc1)N(CC1CCNCC1)C(=O)c1ccc(C)cc1 (stereo not drawn)	1440	10000	–
CCC(c1nc2snc(C)c2c(=O)n1Cc1cccc(F)c1)N(CCCN)C(=O)c1ccc(C)cc1 (single isomer, unassigned; (+))	–	13	–
CCC(c1nc2ccsc2c(=O)n1Cc1ccccc1)N(CCCN)C(=O)c1ccccc1Cl (stereo not drawn)	610	860	–
CCC(c1nc2ccsc2c(=O)n1Cc1ccccc1)N(CCCN)C(=O)c1ccc(C(=O)OC)cc1 (stereo not drawn)	5960	–	–
CCC(c1nc2ccsc2c(=O)n1Cc1ccccc1)N(CC1CNCCO1)C(=O)c1ccc(C)cc1 (stereo not drawn)	310	720	–
CCC(c1nc2ccsc2c(=O)n1Cc1ccccc1)N(CCCN)C(=O)c1ccno1 (stereo not drawn)	1390	–	–
CCC(c1nc2sc(Cl)c(Br)c2c(=O)n1Cc1ccccc1)N(CCCN)C(=O)c1ccc(C)cc1 (stereo not drawn)	161	675	–
CCC(c1nc2ccsc2c(=O)n1Cc1ccc(OC)cc1)N(CCCN)C(=O)c1ccc(C)cc1 (stereo not drawn)	160	790	–
Cc1ccc(C(=O)N(CCCN)C(c2nc3snc(C)c3c(=O)n2Cc2ccccc2)C(C)C)cc1 (stereo in doubt; 65) [AZD-4877]	–	2	–
CCC(c1nc2ccsc2c(=O)n1Cc1ccccc1)N(CCCN)C(=O)c1sccc1C (stereo not drawn)	410	–	–
CCC(c1nc2ccsc2c(=O)n1Cc1ccccc1)N(CCCN)C(=O)c1ccc(F)cc1 (stereo not drawn)	140	570	–
CCC(c1nc2snc(C)c2c(=O)n1Cc1ccccc1)N(CCCN)C(=O)c1ccc(C)c(F)c1 (stereo not drawn)	–	12	–
Cc1ccc(C(=O)N(CCCN)C(c2nc3snc(C)c3c(=O)n2Cc2ccccc2)C(C)C)cc1F (single isomer, unassigned; (+))	–	10	–
CCC(c1nc2sc(Cl)cc2c(=O)n1Cc1ccccc1)N(CCCN)C(=O)c1ccc(C)cc1 (stereo not drawn)	85	464	–
CCC(c1nc2snc(C)c2c(=O)n1Cc1ccccc1)N(CCCN)C(=O)c1ccc(C)cc1 (single isomer, unassigned; (-))	51	–	–
Cc1nsc2nc(C(C(C)C)N(CCCN)C(=O)c3ccc(Br)cc3)n(Cc3ccccc3)c(=O)c12 (stereo not drawn)	–	6	–
CCC(c1nc2ccn(C)c2c(=O)n1Cc1ccccc1)N(CCCN)C(=O)c1ccc(C)cc1 (stereo not drawn)	21	43	–
CCC(c1nc2ccsc2c(=O)n1Cc1ccccc1)N(CCCN)C(=O)c1ccccc1C (stereo not drawn)	1060	–	–
CCC(c1nc2ccsc2c(=O)n1Cc1ccccc1)N(CCCN)C(=O)C1CC1 (stereo not drawn)	6700	–	–
CCC(c1nc2sccc2c(=O)n1Cc1ccccc1)N(CCCN)C(=O)c1ccc(C)cc1 (single isomer, unassigned; (+))	3	–	8
Cc1ccc(C(=O)N(CCCN)C(c2nc3snc(C)c3c(=O)n2Cc2cccc(F)c2)C(C)C)cc1 (single isomer, unassigned; (+))	–	5	–

SMILES	IC50 [1] [nM]	IC50 (COLO 205; Homo sapiens, COLO 205, 72 h) [nM]	IC50 (COLO 205; colo 205) [nM]
CCC(c1nc2ccsc2c(=O)[nH]1)N(CCCN)C(=O)c1ccc(C)cc1 (stereo not drawn)	9000	–	–
CCC(c1nc2sc(Br)cc2c(=O)n1Cc1ccccc1)N(CCCN)C(=O)c1ccc(C)cc1 (stereo not drawn)	141	763	–
CCC(c1nc2ccsc2c(=O)n1Cc1ccccc1)N(CCCN)C(=O)c1ccc(C)cc1 (stereo not drawn)	10	100	–
CCC(c1nc2ccsc2c(=O)n1Cc1ccccc1)N(CCCN)C(=O)c1ccc(C#N)cc1 (stereo not drawn)	2700	–	–
CCC(c1nc2ccsc2c(=O)n1Cc1ccccc1)N(C(=O)c1ccc(C)cc1)C1CCNCC1 (stereo not drawn)	1070	1290	–
CCC(c1nc2ccsc2c(=O)n1Cc1ccccc1)N(CCCN)C(=O)c1ccccc1 (stereo not drawn)	200	680	–
CCC(c1nc2ccsc2c(=O)n1Cc1ccccc1)N(CCCNC(C)=O)C(=O)c1ccc(C)cc1 (stereo not drawn)	2920	–	–
CCC(c1nc2ccsc2c(=O)n1Cc1cscn1)N(CCCN)C(=O)c1ccc(C)cc1 (stereo not drawn)	9090	–	–
CCC(c1nc2ccsc2c(=O)n1Cc1ccccc1)N(CCCN)C(=O)c1ccc(C(C)C)cc1 (stereo not drawn)	940	3300	–
CCC(c1nc2ccsc2c(=O)n1Cc1ccccc1)N(CCCN)C(=O)c1ccc(OC(F)(F)F)cc1 (stereo not drawn)	2460	–	–
CCC(c1nc2ccsc2c(=O)n1Cc1ccccc1)N(CCCN)C(=O)c1cccc(C(F)(F)F)c1 (stereo not drawn)	310	580	–
CCC(c1nc2ccoc2c(=O)n1Cc1ccccc1)N(CCCN)C(=O)c1ccc(C)cc1 (stereo not drawn)	13	174	–
CCC(c1nc2ccsc2c(=O)n1Cc1ccncc1)N(CCCN)C(=O)c1ccc(C)cc1 (stereo not drawn)	5310	–	–
CCC(c1nc2snc(C)c2c(=O)n1Cc1ccccc1)N(CCCN)C(=O)c1ccc(Br)cc1 (stereo not drawn)	–	14	–
CCC(c1nc2ccsc2c(=O)n1Cc1ccccc1)N(CCCN)C(=O)c1ccc2nccnc2c1 (stereo not drawn)	3210	–	–
CCC(c1nc2ccsc2c(=O)n1Cc1ccccc1)N(CCCCN)C(=O)c1ccc(C)cc1 (stereo not drawn)	390	980	–
Cc1ccc(C(=O)N(CCCN)C(c2nc3snc(C)c3c(=O)n2Cc2ccccc2)C(C)C)cc1 (single isomer, unassigned; (-)) [AZD-4877]	429	–	–
CCC(c1nc2ccsc2c(=O)n1Cc1ccc(C)cc1)N(CCCN)C(=O)c1ccc(C)cc1 (stereo not drawn)	130	650	–
CCC(c1nc2ccsc2c(=O)n1Cc1ccccc1)N(CCCN)C(=O)C1CCC(OC)CC1 (stereo not drawn)	9000	–	–
CCC(c1nc2ccsc2c(=O)n1Cc1ccccc1)N(CCCNC(=O)OC(C)(C)C)C(=O)c1ccc(C)cc1 (stereo not drawn)	10000	–	–
CCC(c1nc2snc(C)c2c(=O)n1Cc1ccc(F)cc1)N(CCCN)C(=O)c1ccc(C)cc1 (stereo not drawn)	–	105	–

The remaining lines, values ahead:

IC50 [1] [nM]	IC50 (COLO 205; Homo sapiens, COLO 205, 72 h) [nM]	IC50 (COLO 205; colo 205) [nM]	SMILES
5460	–	–	CCC(c1nc2nccnc2c(=O)n1Cc1ccccc1)N(CCCN)C(=O)c1ccc(C)cc1 (stereo not drawn)
500	1550	–	CCC(c1nc2ccsc2c(=O)n1Cc1ccccc1)N(CCCN)C(=O)c1ccco1 (stereo not drawn)
9000	–	–	CCC(NC(=O)c1ccc(C)cc1)c1nc2ccsc2c(=O)n1Cc1ccccc1 (stereo not drawn)
5520	–	–	CCCCC(=O)N(CCCN)C(CC)c1nc2ccsc2c(=O)n1Cc1ccccc1 (stereo not drawn)
150	310	–	CCC(c1nc2ccsc2c(=O)n1Cc1ccccc1)N(CCCN)C(=O)c1ccc(Cl)cc1Cl (stereo not drawn)
1900	–	–	CCC(c1nc2sccc2c(=O)n1Cc1ccccc1)N(CCCN)C(=O)c1ccc(C)cc1 (single isomer, unassigned; (-))
980	3690	–	CCC(c1nc2ccsc2c(=O)n1Cc1ccccc1)N(CCCN)C(=O)c1ccc(C)nc1 (stereo not drawn)
–	19	–	Cc1ccc(C(=O)N(CCCN)C(c2nc3snc(C)c3c(=O)n2Cc2ccc(F)cc2)C(C)C)cc1 (stereo not drawn)
323	1400	–	CCC(c1nc2ncccc2c(=O)n1Cc1ccccc1)N(CCCN)C(=O)c1ccc(C)cc1 (stereo not drawn)
90	250	–	CCc1ccc(C(=O)N(CCCN)C(CC)c2nc3ccsc3c(=O)n2Cc2ccccc2)cc1 (stereo not drawn)
630	1710	–	CCC(c1nc2ccsc2c(=O)n1Cc1cc(C)on1)N(CCCN)C(=O)c1ccc(C)cc1 (stereo not drawn)
140	1360	–	CCC(c1nc2ccsc2c(=O)n1Cc1ccccc1F)N(CCCN)C(=O)c1ccc(C)cc1 (stereo not drawn)
210	640	–	CCC(c1nc2ccsc2c(=O)n1Cc1ccccc1)N(CCCN)C(=O)c1ccc(OC)cc1 (stereo not drawn)
3500	–	–	CCC(c1nc2ccsc2c(=O)n1Cc1ccccn1)N(CCCN)C(=O)c1ccc(C)cc1 (stereo not drawn)
20	60	–	CCC(c1nc2ccsc2c(=O)n1Cc1ccccc1)N(CCCN)C(=O)c1ccc(C)c(F)c1 (stereo not drawn)
4540	–	–	CCC(c1nc2ccsc2c(=O)n1Cc1ccccc1)N(CCCN)C(=O)CC(C)C (stereo not drawn)
20	330	–	CCC(c1nc2ccsc2c(=O)n1Cc1cccc(F)c1)N(CCCN)C(=O)c1ccc(C)cc1 (stereo not drawn)
210	510	–	CCC(c1nc2ccsc2c(=O)n1Cc1ccccc1)N(CCCN)C(=O)c1ccc(C(F)(F)F)cc1 (stereo not drawn)
150	260	–	CCC(c1nc2ccsc2c(=O)n1Cc1ccccc1)N(CCCN)C(=O)c1ccc2c(c1)OCO2 (stereo not drawn)
3800	–	–	CCC(c1nc2ccsc2c(=O)n1Cc1cccnc1)N(CCCN)C(=O)c1ccc(C)cc1 (stereo not drawn)
5990	–	–	CCC(c1nc2ccsc2c(=O)n1Cc1ccccc1)N(CCCNS(C)(=O)=O)C(=O)c1ccc(C)cc1 (stereo not drawn)
40	–	–	CCC(c1nc2ccsc2c(=O)n1Cc1ccccc1)N(CCCN)C(=O)c1cc2ccccc2s1 (stereo not drawn)
4220	–	–	CCC(c1nc2ccsc2c(=O)n1Cc1ccccc1)N(CCCN)C(=O)C1CCCC1 (stereo not drawn)
2310	–	–	CCC(c1nc2ccsc2c(=O)n1Cc1ccccc1)N(CCCN)C(=O)C1COc2ccccc2O1 (stereo not drawn)
